Reference: patent US9897607B2, “Methods, kits, and systems for treatment of metastatic papillary thyroid cancer” (The Governors of the University of Alberta, priority 2012, dated 2018)
Entries after “also recorded” stand apart in the source; their conditions may differ.

Assays:
TPC-1 cell line [1] = experiment: Cell viability (MTS assay), TPC-1; format: cell-based, human; settings: small molecule inhibitors Ly294002, U0126, 16 hours
Protocol: (§1) As previously described, Cytoselect™ 96-well cell invasion assay kit was used (Cell Biolabs, San Diego, Calif., USA) to assess cell invasiveness according to the manufacturer's protocol.^46 Briefly, TPC-1, BCPAP and 8305C after transfected with either PDGFRα siRNA or scramble siRNA, 10000 cells were starved overnight and added to the inserts, PDGF-BB was added to some wells at the concentration of 25 ng/mL, PDGF-BB was added 1 h later for inhibitors, sunitinib (0.2 umol/L), Ly294002 (10 umol/L) and (U0126) 2 umol/L, cells were seeded into the insert plate for 16 hours, the invasive cells passed through basement membrane layer to the bottom and dissociated from membrane by the addition of cells detachment buffer, the invasive cells were lysed and followed by quantification using CyQuant GR fluorescent Dye. For cell viability analysis 10000 cells were seeded per well and cultured for 16 hours. MTS assay (Promega, Madison, USA) was then performed in 4 replicates followed manufacturer's instructions. PTC cell lines transfected with PDGFR specific siRNA or scrambled control were plated at a density of 10,000 or 20,000/ml and cultured for 5 days. Cell counts were done on days 2, 3 and 5 using trypan blue (Sigma-Aldrich, Oakville, Canada) and results expressed as total number of viable cells. […] The absorbance was recorded by a BioRad spectrophotometer at day 5 of cell culture.

thyroid cancer = thyroid cancer trials; cited from earlier work
TPC-1 cell line [2] = experiment: Cytoselect cell invasion assay, TPC-1; format: cell-based, human
Protocol: (§2) As previously described, Cytoselect™ 96-well cell invasion assay kit was used (Cell Biolabs, San Diego, Calif., USA) to assess cell invasiveness according to the manufacturer's protocol.^46 Briefly, TPC-1, BCPAP and 8305C after transfected with either PDGFRα siRNA or scramble siRNA, 10000 cells were starved overnight and added to the inserts, PDGF-BB was added to some wells at the concentration of 25 ng/mL, PDGF-BB was added 1 h later for inhibitors, sunitinib (0.2 umol/L), Ly294002 (10 umol/L) and (U0126) 2 umol/L, cells were seeded into the insert plate for 16 hours, the invasive cells passed through basement membrane layer to the bottom and dissociated from membrane by the addition of cells detachment buffer, the invasive cells were lysed and followed by quantification using CyQuant GR fluorescent Dye. For cell viability analysis 10000 cells were seeded per well and cultured for 16 hours. MTS assay (Promega, Madison, USA) was then performed in 4 replicates followed manufacturer's instructions. PTC cell lines transfected with PDGFR specific siRNA or scrambled control were plated at a density of 10,000 or 20,000/ml and cultured for 5 days. Cell counts were done on days 2, 3 and 5 using trypan blue (Sigma-Aldrich, Oakville, Canada) and results expressed as total number of viable cells. MTS assay was done in 7 replicates as per manufacturer's instructions. The absorbance was recorded by a BioRad spectrophotometer at day 5 of cell culture.

[3] = test system: PDGFR-α/β, MAPK/ERK and PI3K/Akt pathways in TPC-1 cells; experiment: Western blot of PDGFR activation and MAPK/ERK, PI3K/Akt signalling, TPC-1; format: cell-based, human
Protocol: (§3) Primary cell culture and experimental cell lines were maintained in RPMI 1640 media supplemented with 10% FBS. The cells were seeded in a 100-mm culture dish and were grown in a humidified 5% CO2 incubator. For PDGF-BB stimulation (25 ng/ml), cells were grown to about 80% confluence and incubated in serum-free medium overnight prior to each experiment. MAPK/ERK inhibitors U0126 and PD98059 were purchased from Calbiochem (Toronto, Ontario, Canada). PI3K/Akt inhibitor ly294002 was purchased from Cell Signaling Technology (Danvers, Mass., USA). Cells that were treated with inhibitors were given varying concentrations: U0126; 2 umol/L and 10 umol/L; Ly294002 10 umol/L and 25 umol/L; Sunitinib 0.25 umol/L. In all cases, unless otherwise indicated the inhibitors were given to cells and 60 minutes later the PDGF-BB was added to the cultures followed by Western blot analysis.
(§4) Cells were lysed in RIPA buffer [150 mM NaCl, 100 mM Tris (pH 8.0), 1% Triton X-100, 1% deoxycholic acid, 0.1% SDS, 5 mM EDTA, and 10 mM NaF] supplemented with 1 mM sodium vanadate, 2 mM leupeptin, 2 mM aprotinin, 1 mM phenylmethylsulfonyl fluoride (PMSF), 1 mM DTT, 2 mM pepstatin, and 1:100 protease inhibitor cocktail set III on ice. After centrifugation at 4° C. at 18,000 rpf for 15 min, the supernatant was harvested as the total cellular protein extracts and stored at −80° C. The protein concentration was determined using Bio-Rad protein assay reagent (Richmond, Va., USA). Running samples were prepared by adding a sample reducing agent and SDS sample buffer, incubating at 98° C. for 5 min. Aliquots of protein extract samples were separated by SDS-polyacrylamide gel electrophoresis (SDS-PAGE) and transferred to nitrocellulose membrane. Membranes were blocked with 5% nonfat dry milk in 1×TBS containing 0.05% Tween-20 for 60 min, followed by incubation with primary antibodies 4° C. overnight. Protein bands were detected by incubation with horseradish peroxidase-conjugated antibodies (Pierce Biotechnology, Rockford, Ill., USA) and visualized with SuperSignal West Pico chemiluminescence substrate (Thermo Scientific, Rockford, Ill., USA).

[4] = test system: PDGFR-α (phospho-PDGFR), PI3K/Akt and MAPK/ERK pathways; experiment: Western blot of primary cell culture from metastatic papillary thyroid cancer lymph node, PDGF-BB stimulation; format: cell-based, human
Protocol: as §3, §4

[5] = test system: PDGFR-α/β, MAPK/ERK and PI3K/Akt pathways in 8305C cells; experiment: Western blot of PDGFR activation and MAPK/ERK, PI3K/Akt signalling, 8305C; format: cell-based, human
Protocol: as §3, §4

8305C cell line = experiment: Cytoselect cell invasion assay, 8305C; format: cell-based, human
Protocol: as §2

BCPAP cell line = experiment: Cytoselect cell invasion assay, BCPAP; format: cell-based, human
Protocol: as §1

[6] = test system: TPC-1, 8305C and BCPAP cell lines; experiment: Cell growth of PTC cell lines with sunitinib (FIG. 6); format: cell-based, human; settings: all of the cell lines; absence of PDGF-BB stimulation
KTC-1 cell line = experiment: Cytoselect cell invasion assay, KTC-1; format: cell-based, human; settings: KTC-1 (neither subunit); also increasing levels or longer stimulation
TPC-1-derived cell lines = experiment: Mice xenograft model with shRNA TPC-1-derived cell lines; format: in vivo; settings: mice inoculated with cell lines in Matrigel; 20 days after inoculation; versus other groups
Protocol: To selectively and stably silence the expression of the PDGFR-alpha and-beta receptors in the TPC-1, BCPAP and 8305C cell lines we used the HuSH-29 shRNA Vector system (HuSH-29 shRNA Retroviral Vector Systems; OriGene Technologies, Inc.). Briefly, to silence the expression of the PDGFR-alpha receptor PTC cells were transduced with the pRS shRNA retrovirus system (Puro+) followed by selection in puromycin (2.5 ug/mL). Resistant cells were assessed by western blot to select the sequences that produced the higest levels of protein expression knock-down. The sequences used for these studies were […] (SEQ ID NO: 1) for the TPC-1 cell line and […] (SEQ ID NO: 2) for the 8305C cell line. To selectively knock down the PDGFR-beta receptor were transduced with the pGFP-BR-S shRNA retrovirus system (BSD+) followed by selection in blasticidin (500 ug/mL). Resistant cells were again assessed by western blot to select the sequences that produced the higest levels of protein expression knock-down. […]
The experiments of FIG. 13 depict knock down of PDGFR-alpha or -beta subunit results in opposing effects in tumour formation on a mice xenograft model. […] The average tumour volume (top panel) and tumour weight (bottom panel) was much higher for mice given cell lines expressing only PDGFR-alpha and statistical significance between groups were calculated 20 days after inoculation.

[7] = primary culture, PDGF-BB 25 ng/ml

## O=c1cc(N2CCOCC2)oc2c(-c3ccccc3)cccc12 [Ly294002]
TPC-1 cell line [1]
  cell viability: not significantly altered

## CNC(=O)c1cc(Oc2ccc(NC(=O)Nc3ccc(Cl)c(C(F)(F)F)c3)cc2)ccn1 [Sorafenib, sorafenib]
Thyroid cancer
  outcomes: favourable outcomes
  side-effect profiles: acceptable side-effect profiles

## N#CC(=C(/N)Sc1ccccc1N)/C(C#N)=C(\N)Sc1ccccc1N [U0126]
TPC-1 cell line [2]; TPC-1, U0126 2 umol/L (MAPK/ERK blockade), PDGF-BB 25 ng/mL 1 h later, 16 hours
  PDGF-BB mediated increases in invasive potential: sufficient to abrogate increases in invasive potential; also recorded: prevents PDGF-BB mediated increases in invasive potential
TPC-1 cell line [1]
  cell viability: not significantly altered
[3]; PDGF-BB stimulated TPC-1 cells, U0126 2 umol/L and 10 umol/L
  MAPK/ERK pathway blockade (Western blot): decreased protein expression; also recorded: nearly complete

## CCN(CC)CCNC(=O)c1c(C)[nH]c(/C=C2\C(=O)Nc3ccc(F)cc32)c1C [sunitinib, Sunitinib malate]
TPC-1 cell line [2]; TPC-1, sunitinib 0.2 umol/L, PDGF-BB 25 ng/mL added 1 h later, 16 hours
  change in invasive potential with PDGF-BB stimulation: virtually completely abates any change in invasive potential; also recorded: abated any change in invasive potential
TPC-1 cell line [2]; TPC-1, sunitinib 0.2 umol/L, no PDGF-BB
  invasive potential without PDGF-BB stimulation: does not alter invasive potential
[4]; sunitinib 0.25 umol/L given 60 minutes before PDGF-BB 25 ng/ml, semi-quantitative Western blot
  activation of PDGFR (phospho-PDGFR) and downstream PI3K/Akt and MAPK/ERK pathways by PDGF-BB: can be blocked; also recorded: completed blocked
Thyroid cancer
  outcomes: favourable outcomes
  side-effect profiles: acceptable side-effect profiles
[5]; 8305C, sunitinib 0.25 umol/L, PDGF-BB 25 ng/ml 60 minutes later
  activation of PDGFR-α/β (phospho-PDGFR): completely disrupts PDGFR activation; also recorded: completely blocks activation of PDGFR-α/β
[5]; 8305C, sunitinib 0.25 umol/L, PDGF-BB stimulated
  activity in PI3K/Akt and MAPK/ERK pathways: significant decreased activity
8305C cell line; 8305C, sunitinib 0.2 umol/L, PDGF-BB 25 ng/mL added 1 h later, 16 hours
  change in invasive potential with PDGF-BB stimulation: virtually completely abates any change in invasive potential; also recorded: abated any change in invasive potential
8305C cell line; 8305C, sunitinib 0.2 umol/L, no PDGF-BB
  invasive potential without PDGF-BB stimulation: does not alter invasive potential
BCPAP cell line; BCPAP, sunitinib 0.2 umol/L, no PDGF-BB
  invasive potential without PDGF-BB stimulation: does not alter invasive potential
[6]
  effect on cell growth: not significant
[3]; TPC-1, sunitinib 0.25 umol/L, PDGF-BB 25 ng/ml 60 minutes later
  activation of PDGFR-α/β (phospho-PDGFR): completely disrupts PDGFR activation; also recorded: completely blocks activation of PDGFR-α/β
[3]; TPC-1, sunitinib 0.25 umol/L, PDGF-BB stimulated
  activity in PI3K/Akt and MAPK/ERK pathways: significant decreased activity

## PDGF-BB: PDGFR ligand known to bind all subunits of PDGFR, purchased from GIBCO
TPC-1 cell line [2]; TPC-1 (PDGFR-α and -β), PDGF-BB 25 ng/mL
  invasive potential on PDGF-BB stimulation: significant increase in invasive potential; also recorded: increased invasive potential
KTC-1 cell line
  invasive potential on PDGF-BB stimulation: did not exhibit any change in invasive potential
[4]; [7]
  phospho-Akt (PI3K/Akt pathway): significant increases
  phospho-ERK (MAPK/ERK pathway): small increase
  phospho-PDGFR: activated PDGFR-α
[5]; 8305C (BRAF mutation, MAPK/ERK constitutively activated), PDGF-BB
  phospho-ERK: small increase
[5]; 8305C, PDGF-BB 25 ng/ml
  phospho-PDGFR-α/β, phospho-Akt, and phospho-ERK: strong up-regulation
8305C cell line; 8305C (PDGFR-α only), PDGF-BB 25 ng/mL
  invasive potential on PDGF-BB stimulation: significant increase in invasive potential; also recorded: increased invasive potential
BCPAP cell line; BCPAP (PDGFR-β only), PDGF-BB 25 ng/mL
  invasive potential on PDGF-BB stimulation: did not exhibit any change in invasive potential
[3]; TPC-1, PDGF-BB 25 ng/ml
  phospho-PDGFR-α/β, phospho-Akt, and phospho-ERK: strong up-regulation
[3]; TPC-1, PDGF-BB stimulation
  time of return of levels to baseline: ~60 min
  time to increases in phospho-PDGFR-α/β, phospho-Akt and phospho-ERK: ≤ 5 min
  time to maximal activation of both pathways: ≤ 15 min

## TGCCTCCGACGAGATCTATGAGATCATGC (SEQ ID NO: 3) (listed as Homo sapiens) [sh PDGFR-beta, shRNA (pGFP-BR-S retrovirus system) knocking down PDGFR-beta in TPC-1; cells then express only PDGFR-alpha]
TPC-1-derived cell lines
  average tumour volume: much higher
  tumour weight: much higher
